Nine compounds from ChEMBL document CHEMBL1155121, “4-Hydroxy-5-pyrrolinone-3-carboxamide HIV-1 integrase inhibitors” (Bioorg Med Chem Lett, 2008) can be followed below.

Calls of active or inactive are those of the source. The calls are words filed in the database; no cut-off is given here.

One may read the IC50 as the concentration needed to halve the response being measured.

The target in data set [1] is Human immunodeficiency virus type 1 integrase (Human immunodeficiency virus 1, UniProt Q7ZJM1). The data set is described as follows: Inhibition of recombinant HIV1 integrase strand transfer activity.
Chain of Human immunodeficiency virus type 1 integrase (Q7ZJM1 whole entry): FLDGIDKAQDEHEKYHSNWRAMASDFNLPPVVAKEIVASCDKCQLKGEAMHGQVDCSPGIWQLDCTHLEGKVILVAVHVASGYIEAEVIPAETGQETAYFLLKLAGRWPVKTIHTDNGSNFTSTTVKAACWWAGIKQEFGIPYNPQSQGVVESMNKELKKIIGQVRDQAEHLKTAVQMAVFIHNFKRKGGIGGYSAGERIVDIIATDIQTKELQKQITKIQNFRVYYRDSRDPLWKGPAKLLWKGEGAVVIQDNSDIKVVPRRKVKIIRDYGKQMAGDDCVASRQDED
Data set [2] concerns Human immunodeficiency virus 1. The data set is described as follows: Antiviral activity against HIV1 in human MT4 cells at 25 uM. The data set is classed as functional.
The subject of data set [3] is MT4. The data set is described as follows: Cytotoxicity against human MT4 cells up to 20 uM. The class given is cell-based.
Data set [4] deals with Plasma. The experiment in a line: Fraction unbound in human plasma. The class given is ADME, cell-free.

Regarding `O=C(NCc1ccc(F)cc1)C1=C(O)C(=O)N(CCN2CCCCC2)C1`, the IC50 in data set [1] was more than 1000 nM. For the same compound, in data set [2], the outcome was inactive. In addition, the Activity entry in data set [3] is on record as “Not Active”.
Taken in the same sequence, the figures for `O=C(NCc1ccc(F)cc1)C1=C(O)C(=O)N(Cc2ccccc2)C1` were 100 nM, “inactive” and “Not Active”.
As for `CN1C(=O)C(O)=C(C(=O)NCc2ccc(F)cc2)C1c1ccccc1` (stereo not drawn), in data set [1], the IC50 was more than 1000 nM. In addition, the outcome in data set [2] was inactive. Also, the Activity result in data set [3] was “Not Active”.
Taken in the same sequence, the figures for `Cc1cccc(CN2CC(C(=O)NCc3ccc(F)cc3)=C(O)C2=O)c1` were 6 nM, “inactive” and “Not Active”.
Regarding `O=C(NCc1ccc(F)cc1)C1=C(O)C(=O)N(CCCc2ccccc2)C1`, the IC50 in data set [1] turned out to be 5 nM. Moreover, the result in data set [2] was inactive. Further, in data set [3], the Activity result is “Not Active”.
For the compound `O=C(NCc1ccc(F)cc1)C1=C(O)C(=O)N(Cc2ccccn2)C1`, the IC50 in data set [1] came out at 94 nM. Also, the outcome in data set [2] was inactive. The Activity entry in data set [3] was “Not Active”. For the same compound, in data set [4], the Fu was less than 1%.
`O=C(NCc1ccc(F)cc1)C1=C(O)C(=O)N2CCCCC12` (stereo not drawn): the IC50 in data set [1] came out at 18 nM. Further, the Activity is reported as 35% in data set [2] and “Not Active” in data set [3].
Consider `COc1ccccc1CCN1CC(C(=O)NCc2ccc(F)cc2)=C(O)C1=O`, for which the IC50 in data set [1] came out at 4 nM. Also, the outcome in data set [2] was inactive. Moreover, in data set [3], the Activity entry is on record as “Not Active”.
As for `O=C(NCc1ccc(F)cc1)C1=C(O)C(=O)N(CCN2CCOCC2)C1C(=O)NCc1ccc(F)cc1` (stereo not drawn), the IC50 in data set [1] was more than 1000 nM. Besides, in data set [2], the result was inactive. The Activity result in data set [3] is “Not Active”.
